# Measured values reported in publication PMC9298260, “An Immunomodulatory Peptide Dendrimer Inspired from Glatiramer Acetate” (Angewandte Chemie (International Ed. in English), 2021).
# System: IL-1Ra release from human primary monocytes
# Assay: IL-1Ra release from human primary monocytes, immunoassay (ELISA) of supernatants
# Format: cell-based
# Design: key: +: Ability to induce IL-1Ra on primary monocytes after 48 h of incubation; Ability to induce IL-1Ra on primary monocytes after 48 h of incubation
# Details: Table S1 initial library; primary monocytes, 48 h
# Procedure: As an activity screen we focused on interleukin‐1 receptor antagonist (IL‐1Ra), a cytokine released by circulating antigen presenting cells (APC) in response to GA.[15, 35] […] To test our dendrimers, we quantified by immunoassay the release of IL‐1Ra from human primary monocytes of healthy donors, an easily accessible type of APC, stimulated or not by addition of lipopolysaccharide (LPS), which in our hands provided a reliable read‐out.[15] We tested at defined weight/volume (25 and 50 μg mL^−1 compound as typically reported for GA)[15, 35] to account for a possible activity increase with MW as often observed with dendrimers when using molarity. In the initial screen the levels of secreted IL‐1Ra remained below 1 ng mL^−1 for all the smaller test compounds as well as with the linear peptide analogs of GA.
# Figure 2 Cytokine level of IL‐1Ra in supernatants of primary human monocytes of healthy donors treated with peptide dendrimers, evaluated by ELISA (bars, left vertical axis) and mRNA levels (▴, right vertical axis). […] For mRNA levels evaluation, 2×10^6 cells 3 mL^−1 in 6 well plates were incubated with 50 μg mL^−1 dendrimer or GA for 18 h. […]
# Enzyme-linked immunosorbent assay (ELISA)
# Monocytes (5×10^4 cells/200 μL well; 96-well plates) were preincubated for 1 h with or without compounds in RPMI-1640 medium supplemented with 10% heat-inactivated FBS, 50 μg/mL streptomycin, 50 U/mL penicillin, 2 mM L-glutamine, and 5 μg/mL polymyxin B sulfate and then cultured for 48 h in the presence or absence of LPS (100 ng/mL) (2). The production of IL-1Ra was measured in culture supernatants by commercially available enzyme immunoassay according to manufacture protocol.
# Figure S2. Cytokine level of IL-1Ra in supernatants of monocytes for active dendrimers and analogues evaluated by ELISA assay on primary human monocytes of healthy donors. 5×10^4 cells/200 µL in 96 well plates, were incubated with dendrimers or GA as a control for 48 h in presence or absence of LPS (100 ng/mL), in a range of concentrations (50-25 µg/mL) (mean ± SD, n = 2 different experiments). The results are present as the difference between each sample and the non-treated sample to take into account the difference between base line for each donor.
# Figure S3. Cytokine level of IL-1Ra in supernatants of monocytes for active dendrimers and […]
# presence or absence of LPS (100 ng/mL), in a range of concentrations (100-12.5 µg/mL) (mean ± SD, n = 3 different experiments). […]
row,Substance,Act. (ability to induce IL-1Ra)
1,(ClAcAKA)4(KKEY)2KE-OH [ClAc10],-
2,(ClAcAKA)8(KYEK)4(KEKA)2KAKY-OH [ClAc3],-
3,(ClAcK)4(KAYE)2KAKYAEA-NH2) [ClAc13],-
4,(ClAcKA)4(KAYE)2KK-OH [ClAc6],-
5,(ClAcKA)4(KEYA)2KKAK-OH [ClAc7],-
6,(ClAcKAE)4(KAEK)2KYYA-OH [ClAc18],-
7,(ClAcKYA)4(KEA)2KKKA-OH [ClAc14],-
8,(FumAKA)4(KEY)2KYKK-NH2 [Fum15],-
9,(FumAKE)4(KAYA)2KKKK-NH2 [Fum16],-
10,(K)4(KAYAEY)2KAKAEYA-NH2 [compound 17],-

# Same assay, conditions: ability to induce IL-1Ra on primary monocytes after 48 h of incubation; class + / -
row,Substance,IL-1Ra
1,(AK)4(KAEAKAKE)2KKEYEYC(Coumarin)A-NH2 [26Coum],-
2,(AK)4(KAEAKAKE)2KKEYEYCA-NH2 [compound 26],-
3,(AcAKE)4(KKAY)2KYKY-NH2 [Ac22],-
4,(AcKAA)4(KYYE)2KAY-NH2 [Ac19],-
5,(AcKAK)4(KAEY)2KAEA-OH [Ac20],-
6,(AcKEAKY)4(KKYEA)2KEKAYKA-NH2 [Ac27],-
7,(ClAcAKA)4(KKEY)2KE-OH [ClAc10],-
8,(ClAcAKA)8(KYEK)4(KEKA)2KAKY-OH [ClAc3],-
9,(ClAcAKE)4(KKAY)2KYKY-NH2 [ClAc22],-
10,(ClAcK)4(KAYE)2KAKYAEA-NH2) [ClAc13],-
11,(ClAcK)4(KEAKAKEY)2KAKEYEY-OH [ClAc25],-
12,(ClAcKA)4(KAYE)2KK-OH [ClAc6],-
13,(ClAcKA)4(KEYA)2KKAK-OH [ClAc7],-
14,(ClAcKAA)4(KYYE)2KAY-NH2 [AcCl19],-
15,(ClAcKAE)4(KAEK)2KYYA-OH [ClAc18],-
16,(ClAcKEAKY)4(KKYEA)2KEKAYKA-NH2 [ClAc27],-
17,(ClAcKYA)4(KEA)2KKKA-OH [ClAc14],-
18,(FumAKA)4(KEY)2KYKK-NH2 [Fum15],-
19,(FumAKE)4(KAYA)2KKKK-NH2 [Fum16],-
20,(K)4(KAYAEY)2KAKAEYA-NH2 [compound 17],-
21,(KAA)4(KEY)2KAKEYEYA-NH2 [compound 24],-
22,(KAA)8(KKAKAK)4(KAAKKY)2KEKAKCA-OH [compound 30],-
23,(KYA)4(KAE)2KAEYKCA-NH2 [compound 23],-
24,(YKAKAKY)4(KEAKAKY)2KAKEYEY-OH [compound 29],-
